# Experimental data published in patent US8609710B2, “Cycloalkyl-substituted imidazole derivative” (Daiichi Sankyo Company, Limited, priority 2010, dated 2013).
# Structures can show the parent of a compound that is named as a salt.
# Target: TAFIa (Homo sapiens (Human), UniProt Q96IY4)
# Assay: Determination of TAFIa enzyme inhibitory activity
# Type: biochemical
# Conditions: substrate furylacryloyl-alanyl-lysine (FAAK), absorbance at 330 nm
# Procedure: HEPES buffered saline (20 mM HEPES, 150 mM NaCl, pH 7.4; hereinafter, referred to as HBS) was used in the preparation of a reaction solution. To 12 μL of a 250 μg/mL TAFI solution, 30 μL of an HBS solution containing 4 U/mL human thrombin, 12 U/mL rabbit lung thrombomodulin, and 12 mM CaCl2 was added, and the mixture was gently stirred. Then, TAFI was activated at room temperature. Ten minutes later, thrombin was neutralized by the addition of 10 μL of 100 μM PPACK (thrombin inhibitor) to terminate the activation of TAFI. The formed TAFIa was stored in ice and diluted immediately before use in determination with 2050 μL of an HBS solution containing BSA (bovine serum albumin) adjusted to 0.1% in terms of the final concentration.
# A test substance was dissolved in HBS to prepare a 10-fold dilution series of evaluation concentrations. 80 μl, of the TAFIa solution and 10 μL of the test substance were added to each well of a 96-well plate and mixed by shaking for 10 minutes. 10 μL, of furylacryloyl-alanyl-lysine (FAAK) adjusted to 5 mg/mL was added to each well, and the change in the absorbance of this mixed solution at 330 nm was read for 30 minutes to determine the degradation rate of the substrate.
# The degradation rate of the substrate in each well was applied to a standard curve prepared using the dilution series of the TAFIa solution to calculate TAFIa activity. The 50% inhibitory concentration (IC50) was calculated based on the correlation between the concentration of the test compound and the TAFIa activity. Compound A (compound of Example 7 in the pamphlet of International Publication No. WO 2002/014285) was used as a control.
# Chain of TAFIa (Q96IY4 115-423): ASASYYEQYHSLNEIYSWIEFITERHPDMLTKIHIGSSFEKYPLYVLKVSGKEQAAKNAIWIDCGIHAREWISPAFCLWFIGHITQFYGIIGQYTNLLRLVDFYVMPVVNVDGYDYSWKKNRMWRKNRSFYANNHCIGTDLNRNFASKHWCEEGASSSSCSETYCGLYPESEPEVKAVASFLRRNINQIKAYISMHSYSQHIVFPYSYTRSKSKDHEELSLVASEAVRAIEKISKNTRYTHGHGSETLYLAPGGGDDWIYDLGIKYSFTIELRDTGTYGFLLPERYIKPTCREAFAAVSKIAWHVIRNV
row,IC50 [nM],Compound
1,9.3,"C[C@H]1CC[C@@H](n2cnc(CC(CCCN)C(=O)O)c2)CC1 (stereo partly drawn) [Example 39, 5-Amino-2-{[1-(cis-4-methylcyclohexyl)-1H-imidazol-4-yl]methyl}valeric acid]"
2,8.8,"CC[C@H]1CC[C@H](n2cnc(CC(CCCN)C(=O)O)c2)CC1 (stereo partly drawn) [Example 3, 5-Amino-2-{[1-(trans-4-ethylcyclohexyl)-1H-imidazol-4-yl]methyl}valeric acid]"
3,21,"C[C@H]1CC[C@H](n2cnc(CC(C(=O)O)N3CC[C@H](N)C3)c2)CC1 (stereo partly drawn) [Example 26, 2-[(3S)-3-Aminopyrrolidin-1-yl]-3-[1-(trans-4-methylcyclohexyl)-1H-imidazol-4-yl]propionic acid]"
4,25,"NCCCC(Cc1cn([C@H]2CC3CCC2C3)cn1)C(=O)O (stereo partly drawn) [Example 12, 5-Amino-2-([1-[endo-bicyclo[2.2.1]hept-2-yl]-1H-imidazol-4-yl]methyl)valeric acid]"
5,> 100,"C[C@@H](CN)C[C@H](Cc1cn([C@H]2CC[C@H](C)CC2)cn1)C(=O)O [35(2R,4R form), (2R,4R)-5-Amino-4-methyl-2-{[1-(trans-4-methylcyclohexyl)-1H-imidazol-4-yl]methyl}valeric acid]"
6,26,"NCCCC(Cc1cn([C@H]2CC[C@H](O)CC2)cn1)C(=O)O (stereo partly drawn) [Example 7, 5-Amino-2-{[1-(trans-4-hydroxycyclohexyl)-1H-imidazol-4-yl]methyl}valeric acid]"
7,19,"CC1(O)CCC(n2cnc(CC(CCCN)C(=O)O)c2)CC1 (stereo not shown) [Example 8, 5-Amino-2-{[1-(4-hydroxy-4-methylcyclohexyl)-1H-imidazol-4-yl]methyl}valeric acid]"
8,21,"NCCCC(Cc1cn(C2CCCCC2)cn1)C(=O)O (stereo not shown) [Example 1, 5-Amino-2-[(1-cyclohexyl-1H-imidazol-4-yl)methyl]valeric acid]"
9,7.8,"C[C@H]1CC[C@H](n2cnc(C[C@H](CCCN)C(=O)O)c2)CC1 [15(2S form), (2S)-5-Amino-2-{[1-(trans-4-methylcyclohexyl)-1H-imidazol-4-yl]methyl}valeric acid]"
10,2.6,"C[C@H]1CC[C@H](n2cnc(C[C@H](CCCN)C(=O)O)c2)CC1 [Example 40, (2S)-5-Amino-2-{[1-(trans-4-methylcyclohexyl)-1H-imidazol-4-yl]methyl}valeric acid p-toluenesulfonate anhydrate]"
11,8.3,"C[C@H]1CC[C@H](n2cnc(CC(CCCN)C(=O)O)c2)CC1 (stereo partly drawn) [Example 2, 5-Amino-2-{[1-(trans-4-methylcyclohexyl)-1H-imidazol-4-yl]methyl}valeric acid]"
12,14,"CCC1CC(n2cnc(CC(CCCN)C(=O)O)c2)C1 (stereo not shown) [Example 4, 5-Amino-2-{[1-(3-ethylcyclobutyl)-1H-imidazol-4-yl]methyl}valeric acid]"
13,5.1,"C[C@@H](CN)C[C@@H](Cc1cn([C@H]2CC[C@H](C)CC2)cn1)C(=O)O [35(2S,4R form), (2S,4R)-5-Amino-4-methyl-2-{[1-(trans-4-methylcyclohexyl)-1H-imidazol-4-yl]methyl}valeric acid]"
14,10,"CCC(CN)CC(Cc1cn([C@H]2CC[C@H](C)CC2)cn1)C(=O)O (stereo partly drawn) [Example 36, 4-(Aminomethyl)-2-{[1-(trans-4-methylcyclohexyl)-1H-imidazol-4-yl]methyl}hexanoic acid hydrochloride]"
15,14,"NCCCC(Cc1cn([C@@H]2CC3CCC2C3)cn1)C(=O)O (stereo partly drawn) [Example 11, 5-Amino-2-({1-[exo-bicyclo[2.2.1]hept-2-yl]-1H-imidazol-4-yl}methyl)valeric acid]"
16,18,"CC1CCCC(n2cnc(CC(CCCN)C(=O)O)c2)C1 (stereo not shown) [Example 9, 5-Amino-2-{[1-(3-methylcyclohexyl)-1H-imidazol-4-yl]methyl}valeric acid]"
17,34,"C[C@H](CN)C[C@H](Cc1cn([C@H]2CC[C@H](C)CC2)cn1)C(=O)O [34(2R,4S form), (2R,4S)-5-Amino-4-methyl-2-{[1-(trans-4-methylcyclohexyl)-1H-imidazol-4-yl]methyl}valeric acid]"
18,21,"NCCCC(Cc1cn([C@@H]2C[C@H]3C[C@H]3C2)cn1)C(=O)O (mixture of isomers) [Example 6, (2RS)-5-Amino-2-({1-[(1R,3s,5S)-bicyclo[3.1.0]hexan-3-yl]-1H-imidazol-4-yl}methyl)valeric acid]"
19,36,"CC1CC(n2cnc(CC(CCCN)C(=O)O)c2)C1 (stereo not shown) [Example 5, 5-Amino-2-{[1-(3-methylcyclobutyl)-1H-imidazol-4-yl]methyl}valeric acid]"
20,9.8,"NCCCC(Cc1cn([C@H]2CC[C@H](Oc3ccncc3)CC2)cn1)C(=O)O (stereo partly drawn) [Example 38, 5-Amino-2-({1-[trans-4-(pyridin-4-yloxy)cyclohexyl]-1H-imidazol-4-yl}methyl)valeric acid hydrochloride]"
21,7,"C[C@H](CN)OC(Cc1cn([C@H]2CC[C@H](C)CC2)cn1)C(=O)O (stereo partly drawn) [Example 25, 2-[(1R)-2-Amino-1-methylethoxy]-3-[1-(trans-4-methylcyclohexyl)-1H-imidazol-4-yl]propionic acid]"
22,13,"NCCCC(Cc1cn([C@H]2CC[C@H](Oc3ccccc3)CC2)cn1)C(=O)O (stereo partly drawn) [Example 14, 5-Amino-2-{[1-(trans-4-phenoxycyclohexyl)-1H-imidazol-4-yl]methyl}valeric acid]"
23,7.5,"CC1(C)CCCC(n2cnc(CC(CCCN)C(=O)O)c2)C1 (stereo not shown) [Example 33, 5-Amino-2-{[1-(3,3-dimethylcyclohexyl)-1H-imidazol-4-yl]methyl}valeric acid]"
24,12,"NCCCC(Cc1cn(C2C3CC4CC(C3)CC2C4)cn1)C(=O)O (stereo not shown) [Example 13, 2-[(1-Adamantan-2-yl-1H-imidazol-4-yl)methyl]-5-aminovaleric acid]"
25,> 100,"C[C@H]1CC[C@H](n2cnc(C[C@@H](CCCN)C(=O)O)c2)CC1 [15(2R form), (2R)-5-Amino-2-{[1-(trans-4-methylcyclohexyl)-1H-imidazol-4-yl]methyl}valeric acid]"
26,8.1,"C[C@H]1CC[C@H](n2cnc(CC(OCCN)C(=O)O)c2)CC1 (stereo partly drawn) [Example 24, 2-(2-Aminoethoxy)-3-[1-(trans-4-methylcyclohexyl)-1H-imidazol-4-yl]propionic acid]"
27,5.4,"C[C@H](CN)C[C@@H](Cc1cn([C@H]2CC[C@H](C)CC2)cn1)C(=O)O [34(2S,4S form), (2S,4S)-5-Amino-4-methyl-2-{[1-(trans-4-methylcyclohexyl)-1H-imidazol-4-yl]methyl}valeric acid]"
28,21,"NCCCC(Cc1cn(C2CCCCCC2)cn1)C(=O)O (stereo not shown) [Example 10, 5-Amino-2-[(1-cycloheptyl-1H-imidazol-4-yl)methyl]valeric acid]"
29,19,"NCCCC(Cc1cn([C@H]2CC[C@@H](O)CC2)cn1)C(=O)O (stereo partly drawn) [Example 37, 5-Amino-2-{[1-(cis-4-hydroxycyclohexyl)-1H-imidazol-4-yl]methyl}valeric acid]"

# Tested on: iron chloride-induced thrombus models
# Assay: not given
# Conditions: mice, intravenous administration; cited from earlier work
row,Compound,antithrombotic effect
1,"potato carboxypeptidase inhibitor (PCI): TAFIa-inhibiting polypeptide consisting of 39 amino acids (QQHADPICNKPCKTHDDCSGAWFCQACWNSARTCGPYVG; UniProt P01075 1-39, looked up)",antithrombotic effect

# Tested on: normal human plasma
# Assay: Fibrinolysis enhancing activity by measurement of time of plasma clot lysis
# Type: biochemical
# Conditions: normal human plasma with tPA; concentration that achieves 50% of 1/2 LT
# Procedure: To a 96-well plate, 20 μL/well HBS, 50 μL/well normal human plasma, 10 μL/well compound solution (the compound solution was prepared by dissolving the compound in HBS, followed by serial dilution with this buffer), and 10 μL/well tPA (Activacin (Kyowa Hakko Kirin Co., Ltd.) was adjusted to 600,000 U/mL with a lysis solution included therein, followed by dilution with HBS) were added, and the mixture was stirred. Then, 10 μL/well reaction solution A (13.8 U/mL human thrombin, 170 mM CaCl2, and 0.9 U/mL thrombomodulin) was added thereto, and the mixture was stirred again. The absorbance at 405 nm was measured using a plate reader at 30-second intervals, with the temperature kept at 37° C. to measure the extent of coagulation. […] A concentration that achieves 50% of 1/2 LT was calculated as EC50 from the relationship between the concentration of the test substance and 1/2 LT. Compound A (compound of Example 7 in the pamphlet of International Publication No. WO 2002/014285) was used as a control.
row,Compound,EC50 [nM]
1,"C[C@H]1CC[C@H](n2cnc(C[C@H](CCCN)C(=O)O)c2)CC1 [15(2S form), (2S)-5-Amino-2-{[1-(trans-4-methylcyclohexyl)-1H-imidazol-4-yl]methyl}valeric acid]",12
